Data as given in paper PMC11300601, “Zurletrectinib is a next-generation TRK inhibitor with strong intracranial activity against NTRK fusion-positive tumours with on-target resistance to first-generation agents” (British Journal of Cancer, 2024).
Like-named read-outs stand apart in the source and are kept apart here.

How the values were obtained:
[1] = test system: IRC-I-XL; assay: CellTiter-Glo cell viability, IRC-I-XL primary CRC cell line (LMNA-NTRK1); assay type: cell-based, human; details: LMNA-NTRK1 fusion, 72 h, read-out: IC50 against IRC-I-XL cell line
Text: (§1) NTRK fusion-positive colorectal cancer cell lines IRC, Kor1, and KM12 were utilized. The IRC and the KM12 cell lines were obtained from Dr. Bardelli and cultured according to the described protocols. The Kor1 cell line was obtained from Lee et al. and cultured on laminin pre-treated plates in RPMI media supplemented with 10% Fetal Bovine Serum (FBS). All cell lines were authenticated by STR and periodically screened for the presence of mycoplasma. For the mutant models, two human-derived colorectal cancer cell lines (IRC) and two mouse-derived glioma models (NLS) were used. […] Sequencing of the double mutant cell line was performed using MSK-IMPACT [25]. IRC primary cell lines were cultured with DMEM/F12 50:50 Mix (Corning) supplemented with 10% FBS. NLS Bcan-Ntrk1 Trka G598R and Bcan-Ntrk1 Trka G670C single mutants as well as double mutants NLS Bcan-Ntrk1 Trka G598R/G670A and NLS Bcan-Ntrk1 Trka G598R/G670C isogenic models were established using CRISPR/Cas9 to knock-in TRKA solvent-front and xDFG mutations into tumor cells derived from a Bcan-Ntrk1-driven glioma mouse model. Trka G598R is the mouse ortholog to human TRKA G595R while Trka G670A and Trka G670C are the mouse ortholog to human TRKA G667A and TRKA G667C, respectively. Mouse p53 ^−/^− Bcan-Ntrk1 glioma cells were plated on laminin-coated plates and cultured with Neurocult Stem Cell Basal Media with Proliferation Supplements (Stem Cell Technologies). […]
(§2) CellTiter-Glo Cell Viability Assays (Promega) and crystal violet clonogenic assays were performed on primary NTRK fusion-positive colorectal cancer cell lines, mouse Ba/F3 cell lines and isogenic mouse glioma cell lines. […] Absorbance was read at 490 nm in accordance with Promega’s protocol. […]
(§3) Statistical analyses were conducted using GraphPad Prism 9 (GraphPad Software Inc.). […] Measurements were assessed for normal distribution and homogeneity of variance using appropriate tests and were analyzed using analysis of variance or T-Tests, and nonparametric tests were used for non-normal distributed data. […]

[2] = test system: Kor1; assay: CellTiter-Glo cell viability, Kor1 primary CRC cell line (TPM3-NTRK1); assay type: cell-based, human; details: TPM3-NTRK1 fusion, 72 h, read-out: IC50 against Kor1 cell line
Text: as §1, §2, §3

[3] = molecular target: T1, TRKA G667C (Homo sapiens, UniProt P04629, G667C); assay: In vitro HTRF kinase assay, recombinant TRKA G667C; assay type: biochemical; details: compared to TRKA G595R
T1 construct: purchased SignalChem Biotech Inc (Richmond, BC, Canada)
T1 sequence (P04629 33-796 G667C): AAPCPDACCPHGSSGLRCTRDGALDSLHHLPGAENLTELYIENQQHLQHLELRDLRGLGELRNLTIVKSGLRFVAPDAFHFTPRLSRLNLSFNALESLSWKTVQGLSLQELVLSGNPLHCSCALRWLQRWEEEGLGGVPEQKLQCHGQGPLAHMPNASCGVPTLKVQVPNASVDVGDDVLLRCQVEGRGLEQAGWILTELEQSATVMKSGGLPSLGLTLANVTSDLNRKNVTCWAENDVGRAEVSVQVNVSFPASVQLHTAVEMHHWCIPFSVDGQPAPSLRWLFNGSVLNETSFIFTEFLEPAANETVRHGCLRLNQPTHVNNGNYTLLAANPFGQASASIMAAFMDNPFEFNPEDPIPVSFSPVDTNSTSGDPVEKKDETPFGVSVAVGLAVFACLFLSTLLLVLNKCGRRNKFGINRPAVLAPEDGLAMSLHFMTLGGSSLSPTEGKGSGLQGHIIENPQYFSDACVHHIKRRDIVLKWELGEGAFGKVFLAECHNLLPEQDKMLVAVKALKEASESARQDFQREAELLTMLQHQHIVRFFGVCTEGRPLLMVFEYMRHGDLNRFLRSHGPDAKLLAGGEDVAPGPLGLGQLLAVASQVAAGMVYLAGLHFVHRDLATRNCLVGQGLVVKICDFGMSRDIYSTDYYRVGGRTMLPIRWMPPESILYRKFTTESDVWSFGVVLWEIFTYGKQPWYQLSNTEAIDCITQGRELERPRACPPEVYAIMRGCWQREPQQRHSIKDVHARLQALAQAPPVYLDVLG
Description: Recombinant kinases were purchased from SignalChem Biotech Inc (Richmond, BC, Canada). In vitro kinase assays were performed following the optimization of the HTRF Kinase Assay (Cisbio). […] ATP concentrations ranged from 1 to 10 µM based on internal optimization.

[4] = test system: IRC LMNA-NTRK1 TRKA G595R/G667C; assay: Proliferation, clonogenic and western blot assays, IRC cell line with TRKA G595R/G667C; assay type: cell-based; details: human NTRK fusion-positive cell line with TRKA G595R/G667C compound mutation
Text: NTRK fusion-positive colorectal cancer cell lines IRC, Kor1, and KM12 were utilized. The IRC and the KM12 cell lines were obtained from Dr. Bardelli and cultured according to the described protocols. The Kor1 cell line was obtained from Lee et al. and cultured on laminin pre-treated plates in RPMI media supplemented with 10% Fetal Bovine Serum (FBS). All cell lines were authenticated by STR and periodically screened for the presence of mycoplasma. For the mutant models, two human-derived colorectal cancer cell lines (IRC) and two mouse-derived glioma models (NLS) were used. […] Sequencing of the double mutant cell line was performed using MSK-IMPACT [25]. IRC primary cell lines were cultured with DMEM/F12 50:50 Mix (Corning) supplemented with 10% FBS. NLS Bcan-Ntrk1 Trka G598R and Bcan-Ntrk1 Trka G670C single mutants as well as double mutants NLS Bcan-Ntrk1 Trka G598R/G670A and NLS Bcan-Ntrk1 Trka G598R/G670C isogenic models were established using CRISPR/Cas9 to knock-in TRKA solvent-front and xDFG mutations into tumor cells derived from a Bcan-Ntrk1-driven glioma mouse model. Trka G598R is the mouse ortholog to human TRKA G595R while Trka G670A and Trka G670C are the mouse ortholog to human TRKA G667A and TRKA G667C, respectively. Mouse p53 ^−/^− Bcan-Ntrk1 glioma cells were plated on laminin-coated plates and cultured with Neurocult Stem Cell Basal Media with Proliferation Supplements (Stem Cell Technologies). Ba/F3 cell lines stably expressing WT and mutant versions (i.e. G595R, G667C/A, V573M, F589L, F633L, F617L, G623R/E, G639R, G696A/C, G709C, V608D/M) of human TRKA, TRKB or TRKC were generated using either lentiviral transduction or standard transfection methods by a contract research organization (Kyinno, Beijing, China).
as §2

[5] = Brain distribution in rats (plasma, brain, CSF by LC-MS/MS); assay type: in vivo, Male Sprague Dawley (SD) rats; details: rat; for concentration at 0.5 h / concentration at 2 h / Kp at 0.5 h / Kp at 2 h: male, Sprague-Dawley, in vivo, po, 10 mg/kg; for Brain concentration (ng/g ± SD) / Brain/plasma ratio (%) / CSF concentration (ng/mL ± SD) / CSF/plasma ratio (%) / Plasma concentration (ng/mL ± SD): 10 mg/kg PO single dose
Description: All […] (PK) studies in rats were conducted according to protocols approved by the Animal Care and Use Committee at InnoCare pharmacology company in China. […] For the collection of plasma, brain tissue and cerebrospinal fluid (CSF), animals were euthanized with CO2 at 0.5 and 2 h post dosing and blood samples were in EDTA-treated microtubes. Brain tissues were homogenized and immediately flash frozen (−80 °C). Blood samples and CSF were spun at 2000 × g for 15 min at 4 °C, and plasma was removed and stored at −80 °C until liquid chromatography-tandem mass spectrometry (LC-MS/MS) analysis. The agents in rat plasma, brain homogenate or CSF samples were extracted and quantified by LC-MS/MS.

[6] = Brain concentration (ng/g ± SD)
[7] = Plasma concentration (ng/mL ± SD)

Q: Which results are given for `O=C(Nc1cnn2ccc(N3CCC[C@@H]3c3cc(F)ccc3F)nc12)N1CC[C@H](O)C1` [Larotrectinib, larotrectinib]?
A: IC50 ([1]; Homo sapiens): 13.4 nM; IC50 ([2]; Homo sapiens): 24.8 nM

Q: For `C[C@@H]1CCc2ncc(F)cc2[C@H]2CCCN2c2ccn3ncc(c3n2)C(=O)N1` [Selitrectinib, selitrectinib], which “Potency against TRKA G667C xDFG mutant recombinant kinase” value [3] is on record?
A: potency was significantly reduced

Q: What about the IC50 ([1]; Homo sapiens) of the same compound?
A: 4.6 nM

Q: And the IC50 ([2]; Homo sapiens)?
A: 13 nM

Q: What about the “Inhibition of growth and TRKA-mediated signaling” value [4] of the same compound?
A: not with the TRKA G595R/G667C compound mutation

Q: What about the concentration at 0.5 h [5, 6] of the same compound?
A: 93.9 ± 23.2 ng/g

Q: And the concentration at 2 h [5, 6]?
A: 85.4 ± 35.4 ng/g

Q: What about the Kp at 0.5 h ([5]; Brain/plasma ratio (%)) of the same compound?
A: 0.0403

Q: What about the Kp at 2 h ([5]; Brain/plasma ratio (%)) of the same compound?
A: 0.0617

Q: And the concentration at 0.5 h ([5]; CSF concentration (ng/mL ± SD))?
A: 11 ± 2.12 ng/mL

Q: What about the concentration at 2 h ([5]; CSF concentration (ng/mL ± SD)) of the same compound?
A: 9.64 ± 6.02 ng/mL

Q: What about the Kp at 0.5 h ([5]; CSF/plasma ratio (%)) of the same compound?
A: 0.00476

Q: And the Kp at 2 h ([5]; CSF/plasma ratio (%))?
A: 0.00648

Q: What about the concentration at 0.5 h [5, 7] of the same compound?
A: 2320 ± 479 ng/mL

Q: What about the concentration at 2 h [5, 7] of the same compound?
A: 1470 ± 854 ng/mL

Q: What does the source list for zurletrectinib?
A: Potency against TRKA G667C xDFG mutant recombinant kinase [3]: potency was significantly reduced; IC50 [1]: 0.47 nM; IC50 [2]: 7.2 nM; Inhibition of growth and TRKA-mediated signaling [4]: not with the TRKA G595R/G667C compound mutation; Brain concentration (ng/g ± SD) ([5]; 0.5 h): 44.5 ± 11.5 ng/g; Brain/plasma ratio (%) ([5]; 0.5 h): 7.17%; CSF concentration (ng/mL ± SD) ([5]; 0.5 h): 17.5 ± 6.00 ng/mL; CSF/plasma ratio (%) ([5]; 0.5 h): 2.81%; Plasma concentration (ng/mL ± SD) ([5]; 0.5 h): 616 ± 76.1 ng/mL; Brain concentration (ng/g ± SD) ([5]; 2 h): 96.9 ± 34.9 ng/g; Brain/plasma ratio (%) ([5]; 2 h): 15.5%; CSF concentration (ng/mL ± SD) ([5]; 2 h): 18.9 ± 5.91 ng/mL; CSF/plasma ratio (%) ([5]; 2 h): 3.04%; Plasma concentration (ng/mL ± SD) ([5]; 2 h): 610 ± 105 ng/mL
